Assay [1] concerns the target FKBP (Homo sapiens, UniProt P62942). As to the kind of experiment: PPIase Inhibition Assay. In kind it is biochemical. Here is the method: 1) Inhibition of PPIase Activity
This assay follows in principle the procedure described in Kofron et al., 1991, Biochemistry 30:6127.
The three main reagents used are PPIase, a substrate for PPIase, and a selected inhibitor compound of the present invention. The basic principle behind this assay is the conversion of the cis isomer of the substrate to the trans form, which conversion is catalyzed by PPIase. Essentially, inhibition of this PPIase activity is measured for the selected compounds. A peptide chymotrypsin substrate containing a proline in the P2 position is only cleaved by chymotrypsin when the Phe-Pro bond is in the trans isomeric configuration. In the presence of excess chymotrypsin, all of the trans peptide isomers are cleaved within approximately five seconds, leaving only cis forms.
The cis peptide will spontaneously convert to the trans isomer at a slow rate. The cis to trans conversion is catalyzed by isomerases at a much faster rate than this spontaneous conversion. Proteins with PPIase activity are examples of such isomerases. After isomerization, the peptide is cleaved by chymotrypsin releasing p-nitroaniline which can be monitored at 390 nm. The rate of release is then calculated using a first order rate plus offset equation utilizing the ENZFITTER program (Leatherbarrow, BIOSOFT, Cambridge, United Kingdom).
In a plastic cuvette are added 950 ul of ice cold assay buffer (25 mM HEPES, pH 7.8, 100 mM NaCl), 10 uL of FKBP (2.5 uM in 10 mM Tris-Cl pH 7.5, 100 mM NaCl, 1 mM dithiothreitol), 25 ul of chymotrypsin (50 mg/ml in 1 mM HCl) and 10 ul of the test compound at various concentrations in dimethyl sulphoxide. The reaction is initiated by addition of 5 ul of substrate (Succinyl-Ala-Phe-Pro-Phe-para-nitroanilide, 5 mg/ml in 235 mM LiCl in trifluoroethanol).
The absorbance at 390 nm versus time is monitored for 90 sec using a Beckman DU70 spectrophotometer. The absorbance versus time data files are transferred to an IBM XT computer and the rate constants determined using the commercial enzfitter program. For each set of data, the uncatalyzed rate of conversion is measured and the uninhibited enzymatic rate determined. The data are expressed as % Activity remaining and are calculated as follows:
% Activity Remaining=(kobs -kuncat)/(kuninh
where kobs is the rate in the presence of a selected test compound, kuncat is the rate in the absence of enzyme, and kuninh is the rate in the presence of enzyme
Data was plotted as the velocity in the absence of the inhibitor (V-) divided by the velocity in the presence of inhibitor (V+) versus the inhibitor concentration. The IC50 can be determined following linear regression as the inhibitor concentration where

Assay [2] relates to human T-cells. The assay is described as follows: Suppression of Human T-Cell Proliferation Assay (PHA-stimulated, [3H]-thymidine incorporation). It is filed as cell-based. The note with it: read-out: IC50. From the text:
2) Human T Lymphocyte Inhibition
Inhibition of mitogen-induced T-cell proliferation can be used to profile immunosuppressive activity of test compounds. In the description of the assay which follows, mitogen-induced T-cell activation was used to test the inhibitory potencies of select compounds of the present invention.
In an assay similar to that described by Bradley in Mishell et al. (Eds.), 1980, Selected Methods in Cellular Immunology, pp 156-161, W. H. Freeman & Co., San Fransisco, Calif., T-cells were stimulated by incubation with phytohemagglutinin (PHA) which binds to cell surface molecules, including the T-cell receptor. This stimulation results in proliferation which can be measured by incorporation of [^3 H]-thymidine into cellular DNA.
The immunosuppressive properties of the compounds of the present invention can be determined by adding various concentrations of the compounds to these cultures and measuring the effect on T-cell proliferation.
Suppression of Human T-Cell Proliferation Assay
Fresh LeukoPaks were obtained from the New York Blood Center, New York, N.Y. The cells, including erythrocytes and leukocytes, were diluted with Hank's Balanced Salt Solution (HBSS) (GIBCO, Grand Island, N.Y.) and layered over Lymphoprep (Nycomed Pharma AS, Oslo, Norway) in sterile 50 ml conical centrifuge tubes. Lymphocytes were isolated at the Hank's/Nycomed interface after centrifugation at 2000×g, 4° C. for 15 min. The lymphocytes were washed with Minimal Essential Medium (GIBCO) containing 2% fetal bovine serum (FBS) (Sigma Chemical Co., St. Louis, Mo.), 1% HEPES buffer (GIBCO) and 1% Penicillin-Stretomycin solution (GIBCO).
T-cells were further purified essentially by sheep erythrocyte (SRBC) rosetting as described by Morimoto et al., 1983, J. Immunol. 130:157. The isolated lymphocytes were adjusted to 2×10^7 cells/ml and 5 ml aliquots of the cell suspension were incubated for 10 minutes at room temperature with 5 ml of a 5% SRBC (Cappel, Organon Technika Corp., West Chester, Pa.) suspension. The cells were gently pelleted by centrifugation at 300 rpm for 10 minutes, followed by a 1 hour incubation at room temperature to allow rosette formation. The cells were gently resuspended,layered over Lymphoprep and centrifuged for 30 minutes at 500×g. The pellet, containing rosetted T-cells and SRBC was treated with ice cold buffered ammonium chloride (GIBCO) to lyse the erythrocytes. T-cells were washed twice with HBSS.
Purified T-cells were resuspended at 2×10^6 cells/ml in complete culture medium composed of RPMI-1640 (Whittaker Bioproducts, Walkerville, Md.) with 10% FBS (Sigma), 2 mM L-glutamine (GIBCO), 1% Penicillin-Streptomycin (GIBCO) and 15 mM HEPES (GIBCO). In 96-well plates (Becton Dickinson, Lincoln Park, N.J.), 0.1 ml aliquots of T-cell suspension were mixed with 0.05 ml of 40 μg/ml PHA-M (Sigma). The compounds of this invention were dissolved in dimethylsulfoxide at 10 mM and various dilutions in complete medium were added in duplicate wells (0.05 ml/well). The plates were incubated at 37° C. in a humidified atmosphere of 5% carbon dioxide and 95% air for 72 hours.
Proliferation was assessed by measurement of [^3 H]-thymidine incorporation. During the last 6 hours of incubation, the cells were pulse labelled with 1 μCi/well of [^3 H]-thymidine (New England Nuclear, Boston, Mass.). The cells were harvested onto glass fiber paper using a plate harvester and the radioactivity incorporated into cellular DNA corresponding to individual wells was measured by standard liquid scintillation counting methods.
A general note: Uptake of a labelled nucleoside into DNA is a usual measure of proliferation.

The mark [3] stands for this setting: concentration of inhibitor required for 50% inhibition of enzyme activity, FKBP, substrate Succinyl-Ala-Phe-Pro-Phe-para-nitroanilide, TABLE I.
The mark [4] stands for this setting: concentration inhibiting [3H]-thymidine incorporation of PHA-stimulated T-cells by 50%, 72 hours, TABLE 2.

We go through 19 compounds from patent publication US5686424A, “2-oxoethyl derivatives as immunosuppressants” (Miles Inc., priority 1995, dated 1997).

As usually defined, the IC50 is the midpoint of a concentration-inhibition curve.

The structures appear in SMILES notation. Where two headings read alike, the source gives them in different places.

Sequence of FKBP (P62942 whole entry): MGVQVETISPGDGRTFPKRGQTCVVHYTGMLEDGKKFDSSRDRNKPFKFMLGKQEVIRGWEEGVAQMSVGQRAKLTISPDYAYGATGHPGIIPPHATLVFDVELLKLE

For the compound `CC[C@H](C)[C@@H](C(=O)NCc1ccccc1)N(C)C(=O)[C@@H]1CCCN1CC(=O)c1ccccc1` [Example 16, L-Isoleucine, N-Methyl-N-[1-(2-Phenyl-2-Oxoethyl)-L-Prolyl] Benzylamide], the IC50 in assay [1] (setting [3]) and in assay [2] (setting [4]) was above 50 µM throughout.

As for `CC[C@H](C)[C@H](NC(=O)[C@@H]1CCCCN1CC(=O)c1ccccc1)C(=O)NCc1ccccc1` [Example 17, L-Isoleucine, N-[1-(2-Phenyl-2-Oxoethyl)-L-Homoproline] Benzylamide], the IC50 is below 50 µM in assay [1] (setting [3]) and above 50 µM in assay [2] (setting [4]).

Regarding `O=C(CN1CCC[C@H]1C(=O)N[C@H](C(=O)NCc1ccccc1)c1ccccc1)c1ccccc1` [Example 18], the IC50 in assay [1] (setting [3]) was below 50 µM; in assay [2] (setting [4]), 6 µM.

Turning to `CC[C@H](C)[C@H](NC(=O)[C@@H]1CCCN1C(C)C(=O)c1ccccc1)C(=O)NCc1ccccc1` (stereo partly drawn) [Example 19, L-Isoleucine, N-[1-(1-Methyl-2-Phenyl-2-Oxoethyl)-L-Prolyl] Benzylamide], the IC50 in assay [1] (setting [3]) is below 50 µM; in assay [2] (setting [4]) it was 18 µM.

Consider `CC[C@H](C)[C@H](NC(=O)[C@@H]1CCCN1CC(=O)c1cccc(OC)c1)C(=O)NCc1ccccc1` [Example 20, L-Isoleucine, N-[1-(2-(3-Methoxyphenyl)-2-Oxoethyl)-L-Prolyl] Benzylamide], for which the half-inhibitory concentration (IC50) in assay [1] (setting [3]) was below 50 µM; in assay [2] (setting [4]), below 11 µM.

With `CC[C@H](C)[C@H](NC(=O)[C@@H]1CCCN1CC(=O)c1ccc(O)c(O)c1)C(=O)NCc1ccccc1` [Example 21, L-Isoleucine, N-[1-(2-(3,4-Dihydroxyphenyl)-2-Oxoethyl)-L-Prolyl] Benzylamide], the IC50 in assay [1] (setting [3]) was below 50 µM; in assay [2] (setting [4]), 34 µM.

Consider `CC[C@H](C)[C@@H](C(=O)NCc1ccccc1)N(C)C(=O)[C@@H]1CCCN1CC(=O)OCc1ccccc1` [Example 22, L-Isoleucine, N-Methyl-N-[1-(2-Benzyloxy-2-Oxoethyl)-L-Prolyl] Benzylamide], for which the IC50 in assay [1] (setting [3]) was above 50 µM; in assay [2] (setting [4]) it was 42 µM.

For `CC[C@H](C)[C@H](NC(=O)[C@@H]1CCCCN1CC(=O)OCc1ccccc1)C(=O)NCc1ccccc1` [Example 23], the IC50 in assay [1] (setting [3]) was below 50 µM; in assay [2] (setting [4]), 62 µM.

Regarding `CC[C@H](C)[C@H](NC(=O)[C@@H]1CCCN1CC(=O)C(C)(C)C)C(=O)NCc1ccccc1` [Example 26, L-Isoleucine, N-[1-(2-tert-Butyl-2-Oxoethyl)-L-Proline] Benzylamlde], the half-inhibitory concentration (IC50) in assay [1] (setting [3]) is below 50 µM; in assay [2] (setting [4]), 58 µM.

As for `CC[C@H](C)[C@H](NC(=O)[C@@H]1CCCN1CC(=O)c1cc(OC)ccc1OC)C(=O)NCc1ccccc1` [Example 27, L-Isoleucine, N-[1-(2-(2,5-Dimethoxyphenyl)-2-Oxoethyl)-L-Prolyl] Benzylamide], the figures for the IC50 in assay [1] (setting [3]) and in assay [2] (setting [4]) were 12 µM and 20 µM, respectively.

Take `CC[C@H](C)[C@H](NC(=O)[C@@H]1CCCN1CC(=O)c1cccc(OCc2ccccc2)c1)C(=O)NCc1ccccc1` [Example 31, L-Isoleucine, N-[1-(2-(3-Benzyloxyphenyl)-2-Oxoethyl)-L-Prolyl] Benzylamlde]: the IC50 in assay [1] (setting [3]) is below 5 µM; in assay [2] (setting [4]), 32 µM.

In the case of `CC[C@H](C)[C@H](NC(=O)[C@@H]1CCCN1CC(=O)c1ccc(C)cc1C)C(=O)NCc1ccccc1` [Example 32, L-Isoleucine, N-[1-(2-(2,4-Dimethylphenyl)-2-Oxoethyl)-L-Prolyl] Benzylamide], the IC50 is below 5 µM in assay [1] (setting [3]) and 41 µM in assay [2] (setting [4]).

Consider `CC[C@H](C)[C@H](NC(=O)[C@@H]1CCCN1CC(=O)c1ccc(F)cc1)C(=O)NCc1ccccc1` [Example 33, L-Isoleucine, N-[1-(2-(4-Fluorophenyl)-2-Oxoethyl)-L-Prolyl] Benzylamide], for which the half-inhibitory concentration (IC50) came out at 5 µM in assay [1] (setting [3]) and 42 µM in assay [2] (setting [4]).

On to `CC[C@H](C)[C@H](NC(=O)[C@@H]1CCCN1CC(=O)c1ccc(Br)cc1)C(=O)NCc1ccccc1` [Example 34, L-Isoleucine, N-[1-(2-(4-Bromophenyl)-2-Oxoethyl)-L-Prolyl] Benzylamide], for which the IC50 in assay [1] (setting [3]) was below 5 µM; in assay [2] (setting [4]), 40 µM.

`CC[C@H](C)[C@H](NC(=O)[C@@H]1CCCN1CC(=O)Nc1ccc(Cl)cc1Cl)C(=O)NCc1ccccc1` [Example 35, L-Isoleucine, N-[1-(2,4-Dichlorophenylcarbamoylmethyl)-L-Proline] Benzylamide]: the figures for the IC50 in assay [1] (setting [3]) and in assay [2] (setting [4]) were above 5 µM and 43 µM, respectively.

Turning to `CC[C@H](C)[C@H](NC(=O)[C@@H]1CCCN1CC(=O)c1ccc(-c2ccccc2)cc1)C(=O)NC(C)(C)C` [Example 52, L-Isoleucine, N-[1-(2-(Biphenyl-4-yl)-2-Oxoethyl)-L-Prolyl] tert-Butylamide], the values for the IC50 in assay [1] and in assay [2] were below 50 µM and above 50 µM, respectively.

With `O=C(CN1CCC[C@H]1C(=O)N[C@@H](Cc1ccccc1)C(=O)NCc1ccccc1)c1ccc(-c2ccccc2)cc1` [Example 53, L-Phenylalanine, N-[1-(2-(Biphenyl-4-yl)-2-Oxoethyl)-L-Prolyl] Benzylamide], the figures for the IC50 in assay [1] and in assay [2] were above 50 µM and 16 µM, respectively.

Turning to `CC[C@H](C)[C@H](NC(=O)[C@@H]1CCCN1CC(=O)O)C(=O)NCc1ccccc1` [Example 71, L-Isoleucine, N-[1-(Carboxymethyl)-L-Prolyl] Benzylamide], the 50% inhibitory concentration (IC50) in assay [1] (setting [3]) is above 5 µM; in assay [2] (setting [4]), above 50 µM.

With `CC[C@H](C)[C@H](NC(=O)[C@@H]1CCCN1CC(=O)N1CCC2(CC1)OCCO2)C(=O)NCc1ccccc1` [Example 73, L-Isoleucine, N-[1-(2-(1,4-Dioxa-8-aza-spiro[4.5]dec-8-yl)-2-Oxoethyl)-L-Prolyl] Benzylamide], the IC50 in assay [1] (setting [3]) is below 5 µM; in assay [2] (setting [4]) it was above 50 µM.
